For experiment [1], the system named is A549 cells. The format is cell-based, human.
The test system of experiment [2] is A549-ACE2 cells. It is filed as cell-based, human.
Experiment [3] concerns interaction between the S1 subunit and ACE2 receptor. The experiment in a line: AFM competition binding: ACE2-derived peptides vs S1 subunit-ACE2 binding on model surface. As to conditions: for binding probability (BP) with peptide (Fig. 4b) / reduction in the BP (S1-ACE2 complex formation): 250 ms contact time; for binding probability (BP) with peptide (Fig. 4b): mean, N ≥ 3, 0 µM BP: 22-44 10.8724, 22-57 8.6263, 22-44-g-351-357 10.6771, 351-357 8.65885, PEG tip 2.60417; for delta binding (change of binding probability, Fig. 4c): vs 0 µM; for decrease in the BP on purified receptor: AFM on purified ACE2 receptor; for 50% inhibitory concentration (IC50): S1-ACE2 binding by AFM, estimated from 1, 10, 100 µM; for reduction in the BP (S1-ACE2 complex formation): concentration not printed in the sentence (tested 1, 10, 100 µM).

For experiment [4], the system named is mixed culture of A549 and A549-ACE2 cells. The format is cell-based, human. The conditions noted are these: AFM.
Experiment [5] relates to A549-ACE2 cells. The experiment in a line: AFM S1 binding probability on A549-ACE2 cells before and after [22-57] peptide. It is filed as cell-based, human. As to conditions: for BP (Fig. 5a), 100 μM peptide: 100 μM [22–57].
For experiment [6], the system named is A549 cells. Put plainly: AFM S1 binding probability on A549 cells before and after [22-57] peptide. The format is cell-based, human. As to conditions: for BP (Fig. 5a), 100 μM peptide: A549 cells, 100 μM [22–57].
Where [7] appears, read: 1 µM peptide, ddH2O control 27.2772.
[8] abbreviates: 10 µM peptide, ddH2O control -35.4337.
The mark [9] stands for this setting: 100 µM peptide, ddH2O control -21.9737.

“And” between values parts separate entries of the source, which are not always exact repeats. Equal entries are not always repeated.

For 9-O-acetyl-2-α-O-propargyl-SC [SA], the “binding probability + SA (Fig. 3f)” value is 4.4 and 4.6 and 7 and 7.2 with A549 cells [1]; 12.6 and 8.7 and 9 and 10.4 in the experiment with A549-ACE2 cells [2]. Moreover, the “binding frequency after SA injection” value in the experiment with A549 cells [1] (A549 cells, 9-O-acetyl-sialogycans, 1 mM) is ~ 7%; in the experiment with A549-ACE2 cells [2] ([…], 9-O-acetyl-sialogycans, 1 mM), “≈ 10%”.
For “[22–44]: ACE2-derived peptide fragment 22–44, N-terminal helix of ACE2 (sequence in Supplementary Fig. 9)”, the “binding probability (BP) with peptide (Fig. 4b)” value (“binding probability (BP)” below) in experiment [3] (1 µM peptide) came to 6.934; in experiment [3] (10 µM peptide), 4.232; in experiment [3] (100 µM peptide), 4.6224. For the same substance, the entries for the “delta binding (change of binding probability, Fig. 4c)” value in experiment [3] (setting [7]), in experiment [3] (setting [8]) and in experiment [3] (setting [9]) were -48.3738, -79.2642 and -75.9263, respectively. Moreover, the “decrease in the BP on purified receptor” value in experiment [3] is given as greater than 70%. Moreover, in experiment [3], the “50% inhibitory concentration (IC50)” value is “in the µM range”. Further, in experiment [3], the “reduction in the BP (S1-ACE2 complex formation)” value was ~ 76%. Also, in experiment [4], the “decrease in the BP on living cells” value was greater than 70%.
“[22–44–g–351–357]: ACE2-derived fragments 22–44 and 351–357 joined by a glycine residue (EEQAKTFLDKFNHEAEDLFYQSSGLGKGDFR)”: the “binding probability (BP)” value in experiment [3] (1 µM peptide) was determined as 6.641; in experiment [3] (10 µM peptide), 4.915; in experiment [3] (100 µM peptide), 4.655. For the same substance, the “delta binding (change of binding probability, Fig. 4c)” value was -45.2583 in experiment [3] (setting [7]), -63.4203 in experiment [3] (setting [8]) and -62.3402 in experiment [3] (setting [9]). Moreover, the “binding inhibition, result in words” value in experiment [3] (compared with the other peptides) was “we did not notice any strong improvement in the binding inhibition”.
Take “[22–57]: ACE2-derived peptide fragment 22–57, N-terminal helix of ACE2 (sequence in Supplementary Fig. 9)”: the “BP (Fig. 5a), 100 μM peptide” value in the experiment on A549-ACE2 cells [5] (replicate 1 (0 μM: 17)) amounted to 9.7; in the experiment with A549-ACE2 cells [5] (replicate 2 (0 μM: 15.7)), 8.5; in the experiment with A549-ACE2 cells [5] (replicate 3 (0 μM: 29)), 4.4; in the experiment on A549-ACE2 cells [5] (replicate 4 (0 μM: 15.9)), 10.1; in the experiment on A549 cells [6] (replicate 1 (0 μM: 10.8)), 4.3; with A549 cells [6] (replicate 2 (0 μM: 9.7)), 4.1. In the experiment on A549 cells [6] (replicate 3 (0 μM: 7.7)), the “BP (Fig. 5a), 100 μM peptide” value amounted to 1.9. Besides, the “BP level after peptide injection” value in the experiment on A549-ACE2 cells [5] (100 µM peptide) is listed as “reaching a level close to the one of the control cells”. Further, the “change of BP after peptide injection” value with A549 cells [6] (A549 cells (both cell types), 100 µM peptide) is “significant decrease of the BP on both cell types”. The “binding probability (BP)” value in experiment [3] (1 µM peptide) is given as 6.706; in experiment [3] (10 µM peptide), 5.599; in experiment [3] (100 µM peptide), 4.167. The “delta binding (change of binding probability, Fig. 4c)” value is on record as -31.3144 in experiment [3] (setting [7]), -50.4102 in experiment [3] (setting [8]) and -74.5041 in experiment [3] (setting [9]). In experiment [3], the “decrease in the BP on purified receptor” value was greater than 70%. In addition, the “50% inhibitory concentration (IC50)” value in experiment [3] is “in the µM range”. In experiment [3], the “reduction in the BP (S1-ACE2 complex formation)” value is ~ 74%. Further, in experiment [4], the “decrease in the BP on living cells” value was greater than 70%.
As to “[351–357]: ACE2-derived peptide fragment 351–357, part of a hot binding spot (LGKGDFR; UniProt Q9BYF1 351-357, looked up, fragment)”, the “binding probability (BP)” value is reported as 5.599 in experiment [3] (1 µM peptide), 6.3151 in experiment [3] (10 µM peptide) and 5.339 in experiment [3] (100 µM peptide). In addition, the “delta binding (change of binding probability, Fig. 4c)” value in experiment [3] (setting [7]) was -43.4556; in experiment [3] (setting [8]) it was -34.8403; in experiment [3] (setting [9]) it was -54.9815.
Consider cRGD, for which the “binding probability + RGD (Fig. 3f)” value with A549 cells [1] (S1 tip on A549 cells after cRGD, 500 μM, 37 °C, individual data points) is 13.1 and 7.8 and 10.6 and 9.5; with A549-ACE2 cells [2] (S1 tip on A549-ACE2 cells after cRGD, 500 μM, 37 °C, individual data points) it was 14.1 and 9.9 and 20.6 and 14.7. For the same substance, in the experiment on A549-ACE2 cells [2] (A549-ACE2 cells, cRGD 500 μM), the “reduction of the binding frequency after cRGD injection” value is on record as 1–2%.

Source of the values: publication PMC7486399 (Nature Communications, 2020).
